In ChEMBL document CHEMBL4419173, “Small-molecule inhibitors targeting g-protein-coupled rho guanine nucleotide exchange factors” (2014):
Active and inactive are the calls of the source. No cut-off for these calls is given here.

How the values were obtained:
[1] = tested on: MCF7; experiment: Inhibition of cell migration of human MCF7 cells at 10 to 50 uM; type: functional, cell-based
[2] = target: T1, RhoGEF 1/Transforming protein RhoA (Homo sapiens) (UniProt P61586+Q92888); experiment: Binding affinity to human LARG (765 to 1138 residues) DH-PH module expressed in mouse NIH/3T3 cells assessed as reduction in LARG binding to human full length RhoA (1 to 193 residues) by measuring relative LARG binding level at 15 uM in presence of 15 uM Rhosin/G04 pull-down assay (reference value: 1 No unit); type: cell-based
[3] = tested on: MCF7; experiment: Inhibition of cell invasion of human MCF7 cells at 2.5 to 25 uM in presence of 2.5 to 25 uM Rhosin/G04 by Matrigel-coated transwell based assay; type: functional
[4] = target: T2, Rho guanine nucleotide exchange factor 12 (Homo sapiens, UniProt Q9NZN5); experiment: Inhibition of human LARG (765 to 1138 residues) RhoGEF binding to human full length RhoA (1 to 193 residues) in presence of Rhosin/G04
[5] = target: Rho GTPase-activating protein 35/Transforming protein RhoA (Homo sapiens) (UniProt P61586+Q9NRY4); experiment: Inhibition of human p190 expressed in mouse NIH/3T3 cells assessed as reduction in human full length RhoA (1 to 193 residues) interaction with p190 at 50 to 100 uM incubated for 1 hr by Western blot analysis based His-RhoA pull-down assay; type: cell-based
[6] = organism: Mus musculus; experiment: Inhibition of RhoGEF in mouse NIH/3T3 cells assessed as inhibition of 10% calf serum-induced RhoA-GTP formation by measuring relative RhoA-GTP level at 5 uM in presence of 5 uM Rhosin/G04 incubated for 24 hrs by densitometry (reference value: 1); type: cell-based
[7] = organism: Mus musculus; experiment: Inhibition of RhoGEF-mediated RhoA signaling in mouse NIH/3T3 cells assessed as inhibition of serum -induced phospho-MLC formation at 10 to 30 uM incubated for 24 hrs by densitometry; type: cell-based
[8] = tested on: MCF7; experiment: Inhibition of cell invasion of human MCF7 cells at 10 to 50 uM by Matrigel-coated transwell based assay; type: functional
[9] = tested on: MCF7; experiment: Inhibition of RhoGEF in human MCF7 cells derived mammospheres assessed as inhibition of RhoA-mediated phospho-MLC formation incubated for 24 hrs by densitometry; type: cell-based
[10] = target: A-kinase anchor protein 13/Transforming protein RhoA (Homo sapiens) (UniProt P61586+Q12802); experiment: Inhibition of FLAG-tagged human LBC RhoGEF DH-PH module expressed in mouse NIH/3T3 cells assessed as reduction in human full length RhoA (1 to 193 residues) interaction with LBC RhoGEF at 10 to 50 uM incubated for 1 hr by Western blot analysis based His-RhoA pull-down assay; type: cell-based
[11] = organism: Mus musculus; experiment: Inhibition of RhoGEF in mouse NIH/3T3 cells assessed as reduction in 10% calf serum-induced rhoA-mediated actin stress fiber formation at 2.5 uM in presence of 2.5 uM Rhosin/G04 by rhodamine-phalloidin staining based assay; type: cell-based
[12] = organism: Mus musculus; experiment: Inhibition of RhoGEF in mouse NIH/3T3 cells assessed as inhibition of 10% calf serum-induced RhoA-GTP formation by measuring relative RhoA-GTP level at 15 uM in presence of 15 uM Rhosin/G04 incubated for 24 hrs by densitometry (reference value: 1); type: cell-based
[13] = target: T1, RhoGEF 1/Transforming protein RhoA (Homo sapiens); experiment: Binding affinity to human LARG (765 to 1138 residues) DH-PH module expressed in mouse NIH/3T3 cells assessed as reduction in LARG binding to human full length RhoA (1 to 193 residues) by measuring relative LARG binding level at 50 uM pull-down assay (reference value: 1 No unit); type: cell-based
[14] = organism: Mus musculus; experiment: Inhibition of RhoGEF in mouse NIH/3T3 cells assessed as inhibition of 10% calf serum-induced Rac1-GTP formation by measuring Rac1-GTP level at 10 uM incubated for 24 hrs by densitometry relative to control (reference value: 2.86); type: cell-based
[15] = target: T1, RhoGEF 1/Transforming protein RhoA (Homo sapiens); experiment: Binding affinity to human LARG (765 to 1138 residues) DH-PH module expressed in mouse NIH/3T3 cells assessed as reduction in LARG binding to human full length RhoA (1 to 193 residues) by measuring relative LARG binding level at 30 uM pull-down assay (reference value: 1 No unit); type: cell-based
[16] = tested on: MCF7; experiment: Inhibition of RhoGEF in human MCF7 cells derived mammospheres assessed as inhibition of 10% calf serum-induced RhoA-GTP formation by measuring relative RhoA-GTP level at 5 uM incubated for 24 hrs by densitometry (reference value: 1); type: cell-based
[17] = tested on: MCF7; experiment: Inhibition of RhoGEF in human MCF7 cells derived mammospheres assessed as inhibition of 10% calf serum-induced RhoA-GTP formation by measuring relative RhoA-GTP level at 5 uM in presence of 5 uM Rhosin/G04 incubated for 24 hrs by densitometry (reference value: 1); type: cell-based
[18] = target: Protein diaphanous homolog 1/Transforming protein RhoA (Homo sapiens) (UniProt P61586+O60610); experiment: Inhibition of human mDia1 expressed in mouse NIH/3T3 cells assessed as reduction in human full length RhoA (1 to 193 residues) interaction with mDia1 at 50 to 100 uM incubated for 1 hr by Western blot analysis based His-RhoA pull-down assay; type: cell-based
[19] = target: T2, Rho guanine nucleotide exchange factor 12; experiment: Binding affinity to recombinant human LARG (765 to 1138 residues) containing DH-PH catalytic module by microscale thermophoresis analysis
[20] = tested on: MCF7; experiment: Growth inhibition of human MCF7 cells at 5 to 50 uM; type: functional, cell-based
[21] = target: CDC42/Intersectin-1 (Homo sapiens) (UniProt P60953+Q15811); experiment: Inhibition of GST-tagged human intersectin-1 RhoGEF (1227 to 1571 residues) expressed in mouse NIH/3T3 cells assessed as reduction in human full length Cdc42 (1 to 191 residues) interaction with intersectin-1 RhoGEF at 50 to 200 uM incubated for 1 hr by Western blot analysis based pull-down assay; type: cell-based
[22] = tested on: MCF7; experiment: Inhibition of RhoGEF in human MCF7 cells derived mammospheres assessed as inhibition of 10% calf serum-induced RhoA-GTP formation at 2.5 uM in presence of 2.5 uM Rhosin/G04 incubated for 24 hrs by densitometry relative to control; type: cell-based
[23] = tested on: MCF7; experiment: Inhibition of RhoGEF in human MCF7 cells derived mammospheres assessed as inhibition of 10% calf serum-induced RhoA-GTP formation by measuring relative RhoA-GTP level at 2.5 uM in presence of 2.5 uM Rhosin/G04 incubated for 24 hrs by densitometry (reference value: 1); type: cell-based
[24] = tested on: Transforming protein RhoA (Homo sapiens), P61586 [Q63L]; experiment: Inhibition of constitutively active RhoA Q63L mutant (unknown origin) expressed in mouse NIH/3T3 cells assessed as reduction in 10% calf serum-induced phospho-MLC formation at 50 uM incubated for 24 hrs by densitometry; type: cell-based
[25] = organism: Mus musculus; experiment: Inhibition of RhoGEF in mouse NIH/3T3 cells assessed as reduction in 10% calf serum-induced rhoA-mediated actin stress fiber formation at 10 uM by rhodamine-phalloidin staining based assay; type: cell-based

T2 sequence (Q9NZN5 whole entry, the tested form may be a part): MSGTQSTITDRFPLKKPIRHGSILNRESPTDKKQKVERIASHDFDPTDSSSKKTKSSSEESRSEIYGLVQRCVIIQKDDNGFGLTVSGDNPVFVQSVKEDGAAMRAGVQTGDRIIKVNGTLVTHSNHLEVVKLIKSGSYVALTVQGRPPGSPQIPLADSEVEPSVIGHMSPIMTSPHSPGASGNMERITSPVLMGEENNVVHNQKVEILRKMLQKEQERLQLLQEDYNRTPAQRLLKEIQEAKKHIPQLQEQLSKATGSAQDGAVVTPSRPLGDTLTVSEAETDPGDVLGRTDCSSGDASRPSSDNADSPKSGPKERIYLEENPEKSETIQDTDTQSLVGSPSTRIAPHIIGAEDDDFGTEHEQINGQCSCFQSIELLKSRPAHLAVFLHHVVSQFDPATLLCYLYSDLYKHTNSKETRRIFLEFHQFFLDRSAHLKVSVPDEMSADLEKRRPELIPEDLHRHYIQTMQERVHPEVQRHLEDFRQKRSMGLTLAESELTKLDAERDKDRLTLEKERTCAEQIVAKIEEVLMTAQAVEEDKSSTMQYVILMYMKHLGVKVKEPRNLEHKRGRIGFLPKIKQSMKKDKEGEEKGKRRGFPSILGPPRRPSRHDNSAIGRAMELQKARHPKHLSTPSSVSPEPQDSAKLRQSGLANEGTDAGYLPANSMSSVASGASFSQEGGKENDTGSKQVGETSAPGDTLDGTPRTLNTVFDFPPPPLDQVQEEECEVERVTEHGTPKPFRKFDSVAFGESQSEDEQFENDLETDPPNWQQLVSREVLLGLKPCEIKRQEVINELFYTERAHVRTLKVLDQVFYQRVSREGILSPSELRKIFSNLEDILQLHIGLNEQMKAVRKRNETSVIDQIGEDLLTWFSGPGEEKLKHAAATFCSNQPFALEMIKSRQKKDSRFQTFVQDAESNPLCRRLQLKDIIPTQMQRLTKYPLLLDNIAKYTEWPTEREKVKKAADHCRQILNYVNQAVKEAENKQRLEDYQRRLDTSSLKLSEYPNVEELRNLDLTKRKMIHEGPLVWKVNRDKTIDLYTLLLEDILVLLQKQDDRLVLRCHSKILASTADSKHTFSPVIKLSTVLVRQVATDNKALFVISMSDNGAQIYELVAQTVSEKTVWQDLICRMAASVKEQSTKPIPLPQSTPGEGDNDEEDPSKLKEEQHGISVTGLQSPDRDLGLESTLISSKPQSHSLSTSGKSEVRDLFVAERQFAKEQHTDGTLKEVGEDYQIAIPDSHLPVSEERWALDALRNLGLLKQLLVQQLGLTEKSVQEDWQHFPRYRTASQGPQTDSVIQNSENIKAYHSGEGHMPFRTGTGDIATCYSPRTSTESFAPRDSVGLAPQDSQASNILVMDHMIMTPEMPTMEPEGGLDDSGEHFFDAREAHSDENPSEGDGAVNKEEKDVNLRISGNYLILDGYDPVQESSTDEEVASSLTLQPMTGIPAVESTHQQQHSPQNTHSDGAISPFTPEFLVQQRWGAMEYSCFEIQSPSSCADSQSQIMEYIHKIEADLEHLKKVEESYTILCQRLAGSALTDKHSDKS
Chain of CDC42/Intersectin-1 (Homo sapiens) (P60953 whole entry, looked up, the tested form may be a part): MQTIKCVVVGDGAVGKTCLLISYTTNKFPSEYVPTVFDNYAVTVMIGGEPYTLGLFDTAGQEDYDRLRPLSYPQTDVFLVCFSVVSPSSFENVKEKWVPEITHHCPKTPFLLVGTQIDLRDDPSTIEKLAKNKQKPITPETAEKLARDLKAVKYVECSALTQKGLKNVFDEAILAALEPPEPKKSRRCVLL
Chain of CDC42/Intersectin-1 (Homo sapiens) (Q15811 whole entry, looked up, the tested form may be a part): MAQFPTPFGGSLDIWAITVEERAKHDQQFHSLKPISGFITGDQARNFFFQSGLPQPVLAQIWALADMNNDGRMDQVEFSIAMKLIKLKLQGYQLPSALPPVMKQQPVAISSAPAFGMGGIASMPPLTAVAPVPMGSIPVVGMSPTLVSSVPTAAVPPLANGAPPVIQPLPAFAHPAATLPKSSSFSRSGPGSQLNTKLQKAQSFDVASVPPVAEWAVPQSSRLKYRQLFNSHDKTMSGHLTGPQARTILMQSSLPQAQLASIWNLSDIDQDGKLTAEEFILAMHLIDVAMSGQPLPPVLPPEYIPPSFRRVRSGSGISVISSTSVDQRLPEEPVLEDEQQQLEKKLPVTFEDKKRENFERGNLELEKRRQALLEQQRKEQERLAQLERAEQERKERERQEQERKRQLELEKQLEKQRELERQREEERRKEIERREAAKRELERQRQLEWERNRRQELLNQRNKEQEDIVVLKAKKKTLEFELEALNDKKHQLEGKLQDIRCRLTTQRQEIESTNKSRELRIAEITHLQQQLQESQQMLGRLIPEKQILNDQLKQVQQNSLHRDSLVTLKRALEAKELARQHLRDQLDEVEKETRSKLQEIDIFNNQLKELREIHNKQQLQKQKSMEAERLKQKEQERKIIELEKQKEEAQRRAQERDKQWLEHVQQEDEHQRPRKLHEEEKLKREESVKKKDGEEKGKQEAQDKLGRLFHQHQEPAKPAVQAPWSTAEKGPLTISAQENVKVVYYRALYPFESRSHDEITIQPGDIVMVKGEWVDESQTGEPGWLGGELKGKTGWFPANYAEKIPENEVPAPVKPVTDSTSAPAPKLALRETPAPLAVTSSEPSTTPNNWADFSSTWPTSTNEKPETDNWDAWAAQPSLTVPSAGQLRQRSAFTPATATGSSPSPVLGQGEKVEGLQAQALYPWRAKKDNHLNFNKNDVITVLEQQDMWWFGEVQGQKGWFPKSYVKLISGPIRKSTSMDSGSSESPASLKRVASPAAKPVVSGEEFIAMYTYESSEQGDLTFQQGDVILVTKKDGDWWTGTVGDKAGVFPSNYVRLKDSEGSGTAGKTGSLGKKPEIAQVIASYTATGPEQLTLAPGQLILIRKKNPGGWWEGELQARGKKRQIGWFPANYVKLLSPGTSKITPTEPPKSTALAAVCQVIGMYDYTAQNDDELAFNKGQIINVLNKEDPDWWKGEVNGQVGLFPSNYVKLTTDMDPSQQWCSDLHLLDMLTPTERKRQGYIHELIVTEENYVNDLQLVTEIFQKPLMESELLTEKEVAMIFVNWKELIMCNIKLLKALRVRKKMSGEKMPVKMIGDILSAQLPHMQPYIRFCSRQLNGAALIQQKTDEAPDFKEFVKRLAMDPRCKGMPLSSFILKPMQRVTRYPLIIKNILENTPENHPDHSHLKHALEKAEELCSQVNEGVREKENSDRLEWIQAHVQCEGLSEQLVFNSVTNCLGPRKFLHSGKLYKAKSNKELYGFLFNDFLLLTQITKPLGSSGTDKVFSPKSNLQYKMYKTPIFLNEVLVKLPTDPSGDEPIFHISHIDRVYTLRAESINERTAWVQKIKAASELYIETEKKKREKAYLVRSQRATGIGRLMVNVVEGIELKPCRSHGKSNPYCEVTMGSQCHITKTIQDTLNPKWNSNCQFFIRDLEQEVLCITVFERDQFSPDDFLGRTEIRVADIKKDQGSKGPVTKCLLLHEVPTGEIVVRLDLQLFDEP
Chain of Transforming protein RhoA (Homo sapiens), P61586 [Q63L] (P61586 whole entry Q63L): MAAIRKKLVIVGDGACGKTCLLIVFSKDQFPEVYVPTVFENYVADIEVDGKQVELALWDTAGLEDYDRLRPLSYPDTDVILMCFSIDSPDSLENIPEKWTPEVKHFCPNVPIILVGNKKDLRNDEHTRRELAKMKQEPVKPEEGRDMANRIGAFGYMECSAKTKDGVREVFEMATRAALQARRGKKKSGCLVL

## Cc1cccc(COc2cccc(/C=C3\C(=O)NN(c4ccccc4)C3=O)c2)c1
[1]
  inhibition: Active
[2]
  fold change (FC): 0.03
[3]
  inhibition: Active
[4]
  IC50: 1000 nM
[5]
  inhibition: inactive
[6]
  fold change (FC): 0.46
[7]
  inhibition: Active
[8]
  inhibition: Active
[9]
  inhibition: Dose-dependent effect
[10]
  inhibition: inactive
[11]
  inhibition: Active
[12]
  fold change (FC): 0.25
[13]
  fold change (FC): 0.19
[14]
  fold change (FC): 1.83
[15]
  fold change (FC): 0.57
[16]
  fold change (FC): 0.77
[17]
  fold change (FC): 0.11
[18]
  inhibition: inactive
[19]
  Kd: 65 to 76 nM
[20]
  growth inhibition (GI): Active
[21]
  inhibition: inactive
[22]
  inhibition: 70%
[23]
  fold change (FC): 0.27
[24]
  inhibition: inactive
[25]
  inhibition: Active
